Read-outs that look alike come from different tables or passages of the source. Ends that are not written are not given here. palmitoyl‑Lys = palmitoyl-lysine
Tests used:
[1] = tested on: pJAK2 (1001–1013) peptide; experiment: Competitive inhibition binding assay; settings: 5 µg/mL biotinylated pJAK2 pre-incubated with increasing soluble SOCS1-KIR (8-500, printed mg/mL), RT, then direct binding assay; semi-logarithmic fit R2 ≥ 0.95; n = 3
Method: Direct binding assays were performed at room temperature (RT) for 2 h as previously described[34] with modifications. Briefly, Polystyrene 96-well flat bottom plates were seeded with SOCS1 KIR peptide (500 µg/mL) in 0.05 M carbonate-bicarbonate buffer (pH 9.6). The plates were washed 4 times in the wash buffer (Phosphate-buffered saline in 0.05% Tween-20) followed by incubation for 2 h in blocking buffer (3% bovine serum albumin (BSA), 3 mM ethylenediaminetetraacetic acid (EDTA), 0.1% gelatin, and 0.05% Tween 20) and then washed 4 times. Serial dilutions of biotinylated phosphorylated JAK2 (pJAK2) in assay diluent (2% BSA, 3 mM EDTA, 0.01% gelatin, and 0.05% Tween 20) (10, 5, 2.5, 1.25, 0.625, 0.312 µg/mL) were then added to the coated plates for 90 min followed by washing 7 times. Streptavidin- horseradish peroxidase (1:4000, HRP) [BD Biosciences, Cat# 554066] was then added for 30 min followed by 12 wash cycles. Finally, 100 µL 3,3′,5,5′-Tetramethylbenzidine (TMB) substrate [BD Biosciences, Cat# 555214] was added for 30 min followed by assessment with spectrophotometer readings at an absorbance of 450 nm. For competitive Inhibition assays, 5 µg/mL biotinylated pJAK2 was pre-incubated with varying concentrations of SOCS1-KIR ([…]) for 1 h at RT prior and then, a direct binding assay was performed. […]

[2] = tested on: equine recurrent uveitis (ERU); assay type: in vivo, horse; settings: for Response to mimetic: symbols not defined
Text: A priori ERU patients with confirmed ERU but lacking severe ophthalmic decrements (evidence of chronicity), were optimal for enrollment in clinical trial. However, given the unmet need presented by ERU, horses with uncontrolled ERU-mediated inflammation were also enrolled (even with ophthalmic decrement), given that peptide efficacy could be assessed. Reduction in hyperemia was established as the primary endpoint evaluation of peptide efficacy. A priori power analysis established that nine patients would be required to assess a significant decrease in hyperemia, based on historical data from the institution. Ten total patients were enrolled through direct contact with Dr. Plummer. […] No exclusions were made, with all participants noted in Table 1. All procedures were conducted on equine patients subsequent to owner consent.
Ten horses (7 geldings and 3 mares) diagnosed with ERU were enrolled in a short-term, open-label trial to assess the efficacy of topical SOCS1 KIR. The administration of the SOCS1 KIR peptide was in the context of a therapeutic treatment. The horses of varied breed (appaloosa, quarter horse, miniature, and paint- aged 5–21) enrolled in the trial, presenting with acute or insidious disease, were admitted into the University of Florida Veterinary Hospital for 4–7 days to begin treatments with topical SOCS1 KIR. The horses admitted to the clinic were closely evaluated for efficacy and possible negative effects of the treatment. Examinations included intraocular pressure measurement, slit lamp biomicroscopy, and direct and indirect ophthalmoscopy as possible. 200 µg of SOCS1 KIR was administered in 100 µL topically, which was a small volume that prevented reflex tear formation and possible peptide elimination. Seven of 10 patients presented with bilateral disease for a total evaluation of 17 eyes to assess peptide efficacy (Table 1). After hospitalization, ERU patients were returned to their owners, who continued peptide administration from home. The horses underwent complete physical and ophthalmic examinations at day 0, day 3, day 14, and day 42. During the ophthalmic examinations, the horses were scored for discomfort, hyperemia, and aqueous flare using a modified MacDonald-Shadduck System[35] by both the attending veterinary ophthalmologist and four additional masked veterinary ophthalmologists. Safety outcomes at each observation period included: (i) ocular irritation scores (utilizing the modified MacDonald-Shadduck scoring system-); (ii) number of new cases of ocular infections; (iii) number of horses affected with peptide-mediated damage to the eye; (iv) intraocular pressure (mmHg); and (v) ERG b-wave amplitudes to assess retinal function.
Specific rationale is as follows: Given the novelty of the use of topical SOCS1-mimetic peptide, the administration of peptide in this pilot study was ethically conducted in open-label fashion, without randomization, so that rescue medications could be administered, if necessary. […] A single investigator (C.P.) was aware of the drug allocations and the results of clinical evaluations. However, 4 masked veterinarians were utilized to obtain the clinical scoring obtained in Fig. 4E. Given the open enrollment utilized in this pilot study and the administration of drug by patient owners at home, confounders could not be controlled. Placebo medications were not utilized, although SOCS1 mimetic peptide was provided as compassionate use as specific owners noted symptom resumption during drug dry out period (not statistically analyzed).
Experimental data are presented as mean ± standard error of the mean […]. All statistical analyses were performed using GraphPad Prism version 8 software (GraphPad Software, La Jolla, CA, USA). For the in vivo assessment of ERU recovery, paired students t tests were utilized. The data were deemed statistically significant if P ≤ 0.05. […]

[3] = tested on: experimental autoimmune encephalomyelitis (a rodent model of multiple sclerosis); design: method as in PMID 21788442, PMID 21131060, PMID 33737712; settings: peritoneal administration; cited from earlier work
SOCS1-/- mice = settings: cited from earlier work
Text: (§1) Many of the uveal tract destructive cytokines produced by infiltrating T lymphocytes are dependent on Jak2 for either production or signal transduction[38],[46]. […] Endogenous SOCS1 binds to the activation loop of JAK2, inhibit ...

[4] = tested on: lupus pathologies in preclinical models; settings: cited from earlier work
Text: as §1

[5] = tested on: experimentally induced uveitis; design: method as in PMID 27703302, PMID 26094775; settings: mice, topical application as simple eye drop; cited from earlier work
[6] = tested on: experimentally induced uveitis; design: method as in PMID 27703302, PMID 26094775; settings: rats, topical application as simple eye drop; cited from earlier work
induced uveitis = settings: cited from earlier work
[7] = target: T1, pJAK2 activation loop peptide (Equus caballus); experiment: ELISA-type direct plate binding assay
T1 chain: LPQDKEYYKVKEP

[8] = ERU horses, topical, not reaching statistical significance

DTHFRTFRSHSDYRRI [SOCS1-KIR]
signal intensity of pJak2 (1001–1013) binding to plate bound SOCS1-KIR peptide [1]: semi-logarithmic decrease in the signal intensity | resolution of inflammatory processes coinciding with administration (number of horses) ([2]; ERU horses other than patient 2, 4 horses also received diclofenac and/or atropine): eight of the remaining 9 horses | reduction in clinical scoring, masked veterinary scoring of ocular photographs ([2]; ERU horses, by 6 weeks of topical treatment, four masked veterinarians, n = 8, statistically significant): 75% | patients responsive to administration as a monotherapy ([2]; ERU horses, topical): four of the ten patients | reduction in hyperemia clinical scoring ([2]; ERU horses, topical 200 µg in 100 µl twice a day, 6-week evaluation, modified MacDonald-Shadduck score, n = 14 eyes, p < 0.01, paired t test): 40% | reduction in aqueous flare ([2]; ERU horses, topical 200 µg in 100 µl twice a day, 6 weeks, modified MacDonald-Shadduck score, n = 14, p < 0.01): 50% | reduction in overall discomfort ([2]; ERU horses, topical 200 µg in 100 µl twice a day, 6 weeks, n = 8, eyes without discomfort omitted, p < 0.05): near complete reduction | hypopyon [2, 8]: consistent improvements | intraocular pressure [2, 8]: consistent improvements | patients refractory to mimetic treatment ([2]; ERU horses, the refractory patients had severe disease): 3/10 | Response to mimetic ([2]; PT1: Appaloosa gelding, 21 years, severe disease, blind OS, bilateral, plus diclofenac/atropine, 9 months): + + | Response to mimetic dryout period ([2]; PT1: severe disease, plus diclofenac/atropine): yes | Response to mimetic ([2]; Pt 3: Miniature gelding, 16 years, severe disease, bilateral, monotherapy, lost to followup): + + + | Response to mimetic ([2]; Pt 4: Paint mare, 16 years, moderate disease, plus atropine, 2 months): + + + | Response to mimetic ([2]; Pt 5: Appaloosa gelding, 17 years, mild disease, bilateral, monotherapy, 8 months): + + + | Response to mimetic dryout period ([2]; Pt 5: mild disease, monotherapy): yes | Response to mimetic ([2]; Pt 7: Appaloosa gelding, 16 years, mild, bilateral, monotherapy, 3 months): + + + | Response to mimetic dryout period ([2]; Pt 7: mild, monotherapy): yes | Response to mimetic ([2]; Pt 9: Appaloosa mare, 14 years, moderate disease, bilateral, plus diclofenac/atropine, 8 months): + + + | Response to mimetic dryout period ([2]; Pt 9: moderate disease, plus diclofenac/atropine): yes | drug related negative events, long-term use ([2]; in vivo): no observed drug related negative events | systemic immune suppression ([2]; in vivo): no observed systemic immune suppression | discomfort and inflammation when treatment was resumed (compassionate use) ([2]; owner-noted, after return of inflammation in the peptide dry-out period, four owners, not quantitated): subsequent decreases in discomfort and inflammation | clinical improvement, patient 2 ([2]; severe ERU, minimal sight in one eye, SOCS1-KIR 2 mg/ml topical, inflammation persisted, euthanised): very modest clinical improvement | progression of experimental autoimmune encephalomyelitis [3]: inhibited progression of experimental autoimmune encephalomyelitis | perinatal lethality of SOCS1-/- mice (SOCS1-/- mice; peritoneal administration): rescued SOCS1-/- mice from perinatal lethality | circulating memory T cells and Foxp3 high T lymphocytes (SOCS1-/- mice; rodent model of SOCS1 genetic deficiency, peritoneal injection): decreased circulating memory T cells and increased Foxp3 high T lymphocytes | lupus pathologies ([4]; peritoneal administration, preclinical models): reduced lupus pathologies | circulating memory T cells and Foxp3 high T lymphocytes ([4]; spontaneous lupus model, peritoneal injection): decreased circulating memory T cells and increased Foxp3 high T lymphocytes | experimentally induced uveitis [5]: mitigated experimentally induced uveitis | experimentally induced uveitis [6]: mitigated experimentally induced uveitis | chemokines CCL2, CCL20 and CXCL9 and chemokine receptors CCR2, CCR4, CCR6 and CXCR3 (induced uveitis; induced uveitis rodent studies): decreases | TH1- and TH17-associated cytokines and IL-10 (induced uveitis; rodent models of uveitis, topical administration to the eye): suppresses both TH1- and TH17- associated cytokines, while promoting the production of IL-10

{palmitoyl‑Lys}-DTHFRTFRSHSDYRRI [SOCS1-KIR mimetic peptide]
Kd [7]: 1700 nM

From article PMC9065145, “Open label safety and efficacy pilot to study mitigation of equine recurrent uveitis through topical suppressor of cytokine signaling-1 mimetic peptide” (Scientific Reports, 2022)
